# From patent US20130287854A1, “COMPOSITIONS AND USES” (VECTURA LIMITED, priority 2010, published 2013)
# Tests used:
# patients with PD [1] = conditions: subcutaneous, 11/16 patients; cited from earlier work
# [2] = tested on: Parkinson's disease patients; conditions: subcutaneous injection, marketing literature; cited from earlier work
# patients with PD [3] = conditions: subcutaneous, cited from earlier work
# [4] = human, in vivo
# [5] = tested on: Parkinson's disease patients; experiment: Therapeutic effect of apomorphine by pulmonary inhalation in a clinical trial; assay type: in vivo, human
# [6] = tested on: male erectile dysfunction patients; experiment: VR004/008 Phase IIb study, male erectile dysfunction; assay type: in vivo, human; conditions: a couple of patients receiving 310 μg and 430 μg doses
# Protocol: In contrast, in a recent clinical study relating to male erectile dysfunction (VR004/008 Phase IIb study), the majority of patients reported that the duration of action lasted between 2 to 10 minutes, although a couple of patients receiving 310 μg and 430 μg doses did report that the duration of action lasted over 30 minutes.=
# [7] = cited from earlier work
compound,measurement,setting,value
CN1CCc2cccc3c2[C@H]1Cc1ccc(O)c(O)c1-3 [apomorphine],patients reporting incidences of dyskinesia,patients with PD [1],69%
same,patients with improved movement within 20 minutes post dose,[2],90%
same,patients reporting an increased dyskinesia severity compared to baseline,patients with PD [3]; 15 of 20 patients,75%
same,patients reporting signs of dyskinesia,"patients with PD [3]; active group, FIG. 14",35%
same,mean daily duration of on state with non-troublesome dyskinesia and troublesome dyskinesias,patients with PD [3]; active group,0.24 h
same,change in the mean daily period asleep from the baseline,patients with PD [3]; active treatment group,0.10 h
same,mean time to reach therapeutic effect,patients with PD [3]; active treatment group,22.2 min
same,"Tmax, fastest observed",[4],1 min
same,onset of the therapeutic effect (conversion),"[5]; majority of patients, after inhaling",≤ 10 min
same,mean duration of the therapeutic effect,"[5]; pulmonary inhalation, in a clinical trial",75 min
same,"conversion from the off to the on state, quickest reported","[5]; some patients, pulmonary inhalation",2 min
same,duration of action,[6],over 30 minutes
same,dose linearity of pharmacokinetics,"[7]; dose range of 2 to 8 mg, single subcutaneous injection into the abdominal wall, idiopathic Parkinson's disease",linear pharmacokinetics
same,Tmax,[7]; nasal administration,approximately 15 minutes
